# According to patent US8501786B2, “Hydroxymethyl pyrrolidines as beta 3 adrenergic receptor agonists” (Merck Sharp & Dohme Corp., priority 2009, dated 2013):
# Target: T1, human β3 adrenergic receptor (Homo sapiens, UniProt P13945)
# T1 construct: stably transfected with the cloned β-adrenergic receptor (β1, β2 or β3); expressed in transfected cells; host or cells: Chinese hamster ovary (CHO) cells, stably transfected
# Experiment: Functional assay: cAMP production (LANCE TR-FRET) in CHO cells stably transfected with cloned β3 adrenergic receptor
# Type: cell-based
# Conditions: Table 2; cAMP production, CHO cells expressing human β3 AR; read-out: Human β3 functional
# T1 sequence (P13945 whole entry): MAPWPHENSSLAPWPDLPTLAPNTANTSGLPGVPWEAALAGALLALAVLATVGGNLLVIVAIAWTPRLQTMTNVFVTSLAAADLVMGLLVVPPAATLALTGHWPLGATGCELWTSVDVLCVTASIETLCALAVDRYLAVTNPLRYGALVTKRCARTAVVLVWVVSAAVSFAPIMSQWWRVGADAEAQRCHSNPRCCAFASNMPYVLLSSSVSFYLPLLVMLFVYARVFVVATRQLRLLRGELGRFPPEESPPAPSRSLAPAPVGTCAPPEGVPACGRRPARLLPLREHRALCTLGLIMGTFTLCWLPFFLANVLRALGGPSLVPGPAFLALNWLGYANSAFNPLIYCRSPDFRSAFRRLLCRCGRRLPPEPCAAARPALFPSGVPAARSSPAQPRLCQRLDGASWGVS
row,Structure (SMILES),EC50 [nM]
1,O=C(Cn1c(=O)ncc2ccccc21)Nc1ccc(CC2CC[C@H]([C@H](O)c3cccnc3)N2)cc1 (some centres unmarked) [Example 13],1 to 10
2,O=C(Cc1ccccn1)Nc1ccc(CC2CC[C@H]([C@H](O)c3cccnc3)N2)cc1 (some centres unmarked) [Example 14],11 to 100
3,Cc1nc(CC(=O)Nc2ccc(CC3CC[C@H]([C@H](O)c4cccnc4)N3)cc2)cs1 (some centres unmarked) [Example 15],11 to 100
4,O=C(Cc1c(-c2ccccc2)[nH]c2ccccc12)Nc1ccc(CC2CC[C@H]([C@H](O)c3cccnc3)N2)cc1 (some centres unmarked) [Example 16],11 to 100
5,O=C(Cc1nc2ccccc2[nH]1)Nc1ccc(CC2CC[C@H]([C@H](O)c3cccnc3)N2)cc1 (some centres unmarked) [Example 17],11 to 100
6,O=C(Cn1c(-c2ccccc2)nc2ccccc21)Nc1ccc(CC2CC[C@H]([C@H](O)c3cccnc3)N2)cc1 (some centres unmarked) [Example 18],11 to 100
7,O=C(Cc1c[nH]c2ccccc12)Nc1ccc(CC2CC[C@H]([C@H](O)c3cccnc3)N2)cc1 (some centres unmarked) [Example 19],1 to 10
8,Nc1ncn(CC(=O)Nc2ccc(CC3CC[C@H]([C@H](O)c4cccnc4)N3)cc2)n1 (some centres unmarked) [Example 20],1 to 10
9,Cc1sc2ncn(CC(=O)Nc3ccc(CC4CC[C@H]([C@H](O)c5cccnc5)N4)cc3)c(=O)c2c1C (some centres unmarked) [Example 21],1 to 10
10,O=C(Cc1ncccn1)Nc1ccc(CC2CC[C@H]([C@H](O)c3cccnc3)N2)cc1 (some centres unmarked) [Example 22],11 to 100
11,Cc1nnc(CC(=O)Nc2ccc(CC3CC[C@H]([C@H](O)c4cccnc4)N3)cc2)[nH]1 (some centres unmarked) [Example 23],101 to 1000
12,O=C(Cc1nnc(-c2ccc(Cl)cc2)[nH]1)Nc1ccc(CC2CC[C@H]([C@H](O)c3cccnc3)N2)cc1 (some centres unmarked) [Example 24],11 to 100
13,O=C(Cc1nnc(-c2ccncc2)[nH]1)Nc1ccc(CC2CC[C@H]([C@H](O)c3cccnc3)N2)cc1 (some centres unmarked) [Example 25],11 to 100
14,O=C(Cc1nnc(Cc2ccccc2)[nH]1)Nc1ccc(CC2CC[C@H]([C@H](O)c3cccnc3)N2)cc1 (some centres unmarked) [Example 26],11 to 100
15,O=C(Cc1nnc(-c2cscn2)[nH]1)Nc1ccc(CC2CC[C@H]([C@H](O)c3cccnc3)N2)cc1 (some centres unmarked) [Example 27],1 to 10
16,Cc1cccc(CC(=O)Nc2ccc(CC3CC[C@H]([C@H](O)c4cccnc4)N3)cc2)n1 (some centres unmarked) [Example 28],101 to 1000
17,O=C(Cc1csc(C(F)(F)F)n1)Nc1ccc(CC2CC[C@H]([C@H](O)c3cccnc3)N2)cc1 (some centres unmarked) [Example 29],11 to 100
18,O=C(Nc1ccc(CC2CC[C@H]([C@H](O)c3cccnc3)N2)cc1)[C@@H]1CCCN1c1nccs1 (some centres unmarked) [Example 30],1 to 10
19,COc1cccc(N2CCC[C@H]2C(=O)Nc2ccc(CC3CC[C@H]([C@H](O)c4cccnc4)N3)cc2)c1 (some centres unmarked) [Example 31],1 to 10
20,O=C(Nc1ccc(CC2CC[C@H]([C@H](O)c3cccnc3)N2)cc1)c1ccccc1CCc1ccccc1 (some centres unmarked) [Example 32],11 to 100
21,O=C(Nc1ccc(CC2CC[C@H]([C@H](O)c3cccnc3)N2)cc1)c1ccccc1-c1ncc[nH]1 (some centres unmarked) [Example 33],11 to 100
22,O=C(Nc1ccc(CC2CC[C@H]([C@H](O)c3cccnc3)N2)cc1)c1ccccc1-c1nc2ccccc2s1 (some centres unmarked) [Example 34],11 to 100
23,O=C(Nc1ccc(CC2CC[C@H]([C@H](O)c3cccnc3)N2)cc1)c1ccccc1-n1nccn1 (some centres unmarked) [Example 35],11 to 100
24,O=C(Nc1ccc(CC2CC[C@H]([C@H](O)c3cccnc3)N2)cc1)c1ccccc1C1CCCCC1 (some centres unmarked) [Example 36],101 to 1000
25,O=C(Nc1ccc(CC2CC[C@H]([C@H](O)c3cccnc3)N2)cc1)c1ccccc1N1CCCC1 (some centres unmarked) [Example 37],101 to 1000

row,Structure (SMILES),EC50 [nM]
1,O=C(Cn1cncn1)Nc1ccc(CC2CC[C@H]([C@H](O)c3cccnc3)N2)cc1 (some centres unmarked) [Example 38],11 to 100
2,O=C(Cn1nccn1)Nc1ccc(CC2CC[C@H]([C@H](O)c3cccnc3)N2)cc1 (some centres unmarked) [Example 39],11 to 100
3,O=C(Cn1ccccc1=O)Nc1ccc(CC2CC[C@H]([C@H](O)c3cccnc3)N2)cc1 (some centres unmarked) [Example 40],1 to 10
4,O=C(Cc1cnccn1)Nc1ccc(CC2CC[C@H]([C@H](O)c3cccnc3)N2)cc1 (some centres unmarked) [Example 41],11 to 100
5,O=C(CN1CCCCC1=O)Nc1ccc(CC2CC[C@H]([C@H](O)c3cccnc3)N2)cc1 (some centres unmarked) [Example 42],11 to 100
6,O=C(CN1C(=O)CCC1=O)Nc1ccc(CC2CC[C@H]([C@H](O)c3cccnc3)N2)cc1 (some centres unmarked) [Example 43],11 to 100
7,O=C(CN1CCOC1=O)Nc1ccc(CC2CC[C@H]([C@H](O)c3cccnc3)N2)cc1 (some centres unmarked) [Example 44],11 to 100
8,O=C(CN1CCSC1=O)Nc1ccc(CC2CC[C@H]([C@H](O)c3cccnc3)N2)cc1 (some centres unmarked) [Example 45],1 to 10
9,Cc1cn(CC(=O)Nc2ccc(CC3CC[C@H]([C@H](O)c4cccnc4)N3)cc2)nn1 (some centres unmarked) [Example 46],11 to 100
10,O=C(Cc1cncnc1O)Nc1ccc(CC2CC[C@H]([C@H](O)c3cccnc3)N2)cc1 (some centres unmarked) [Example 47],11 to 100
11,COc1ncncc1CC(=O)Nc1ccc(CC2CC[C@H]([C@H](O)c3cccnc3)N2)cc1 (some centres unmarked) [Example 48],11 to 100
12,Nc1ncncc1CC(=O)Nc1ccc(CC2CC[C@H]([C@H](O)c3cccnc3)N2)cc1 (some centres unmarked) [Example 49],11 to 100
13,CNc1ncncc1CC(=O)Nc1ccc(CC2CC[C@H]([C@H](O)c3cccnc3)N2)cc1 (some centres unmarked) [Example 50],101 to 1000
14,COc1cc2ncn(CC(=O)Nc3ccc(CC4CC[C@H]([C@H](O)c5cccnc5)N4)cc3)c(=O)c2cc1OC (some centres unmarked) [Example 51],1 to 10
15,O=C(Cn1ncccc1=O)Nc1ccc(CC2CC[C@H]([C@H](O)c3cccnc3)N2)cc1 (some centres unmarked) [Example 52],1 to 10
16,O=C(Cn1cnccc1=O)Nc1ccc(CC2CC[C@H]([C@H](O)c3cccnc3)N2)cc1 (some centres unmarked) [Example 53],1 to 10
17,O=C(Nc1ccc(CC2CC[C@H]([C@H](O)c3cccnc3)N2)cc1)c1c[nH]c2cccnc12 (some centres unmarked) [Example 54],101 to 1000
18,O=C(Cc1nnn[nH]1)Nc1ccc(CC2CC[C@H]([C@H](O)c3cccnc3)N2)cc1 (some centres unmarked) [Example 55],11 to 100
19,NC(=O)c1nn(CC(=O)Nc2ccc(CC3CC[C@H]([C@H](O)c4cccnc4)N3)cc2)c(=O)c2ccccc12 (some centres unmarked) [Example 56],1 to 10
20,O=C(Cn1c(=O)[nH]c(=O)c2ccccc21)Nc1ccc(CC2CC[C@H]([C@H](O)c3cccnc3)N2)cc1 (some centres unmarked) [Example 57],1 to 10
21,O=C(Cn1c(=O)cnc2ccccc21)Nc1ccc(CC2CC[C@H]([C@H](O)c3cccnc3)N2)cc1 (some centres unmarked) [Example 58],1 to 10
22,Cc1cccc2c(=O)n(CC(=O)Nc3ccc(CC4CC[C@H]([C@H](O)c5cccnc5)N4)cc3)cnc12 (some centres unmarked) [Example 59],1 to 10
23,O=C(Cn1cccnc1=O)Nc1ccc(CC2CC[C@H]([C@H](O)c3cccnc3)N2)cc1 (some centres unmarked) [Example 60],1 to 10
24,O=C(Cn1ccc(=O)[nH]c1=O)Nc1ccc(CC2CC[C@H]([C@H](O)c3cccnc3)N2)cc1 (some centres unmarked) [Example 61],1 to 10
25,Cc1cn(CC(=O)Nc2ccc(CC3CC[C@H]([C@H](O)c4cccnc4)N3)cc2)c(=O)[nH]c1=O (some centres unmarked) [Example 62],11 to 100

row,Structure (SMILES),EC50 [nM]
1,O=C(Cn1ccncc1=O)Nc1ccc(CC2CC[C@H]([C@H](O)c3cccnc3)N2)cc1 (some centres unmarked) [Example 63],11 to 100
2,O=C(Cn1c(=O)[nH]c2ccccc2c1=O)Nc1ccc(CC2CC[C@H]([C@H](O)c3cccnc3)N2)cc1 (some centres unmarked) [Example 65],1 to 10
3,O=C(Cn1nc(Cl)ccc1=O)Nc1ccc(CC2CC[C@H]([C@H](O)c3cccnc3)N2)cc1 (some centres unmarked) [Example 66],11 to 100
4,O=C(Cn1[nH]c(=O)c2ccccc2c1=O)Nc1ccc(CC2CC[C@H]([C@H](O)c3cccnc3)N2)cc1 (some centres unmarked) [Example 67],11 to 100
5,Cc1nonc1CC(=O)Nc1ccc(CC2CC[C@H]([C@H](O)c3cccnc3)N2)cc1 (some centres unmarked) [Example 68],11 to 100
6,CC1=NN(CC(=O)Nc2ccc(CC3CC[C@H]([C@H](O)c4cccnc4)N3)cc2)C(=O)C1C (some centres unmarked) [Example 69],11 to 100
7,CC1=NN(CC(=O)Nc2ccc(CC3CC[C@H]([C@H](O)c4cccnc4)N3)cc2)C(=O)C1 (some centres unmarked) [Example 70],11 to 100
8,O=C(CC1NC(=O)NC1=O)Nc1ccc(CC2CC[C@H]([C@H](O)c3cccnc3)N2)cc1 (some centres unmarked) [Example 71],101 to 1000
9,O=C(CC1NC(=S)N(c2ccccc2)C1=O)Nc1ccc(CC2CC[C@H]([C@H](O)c3cccnc3)N2)cc1 (some centres unmarked) [Example 72],11 to 100
10,O=C(Cc1n[nH]c(=O)[nH]1)Nc1ccc(CC2CC[C@H]([C@H](O)c3cccnc3)N2)cc1 (some centres unmarked) [Example 73],11 to 100
11,O=C(Cc1csc(=S)[nH]1)Nc1ccc(CC2CC[C@H]([C@H](O)c3cccnc3)N2)cc1 (some centres unmarked) [Example 74],11 to 100
12,O=C(Cn1cnc2ccsc2c1=O)Nc1ccc(CC2CC[C@H]([C@H](O)c3cccnc3)N2)cc1 (some centres unmarked) [Example 75],1 to 10
13,Cn1ncc2ncn(CC(=O)Nc3ccc(CC4CC[C@H]([C@H](O)c5cccnc5)N4)cc3)c(=O)c21 (some centres unmarked) [Example 76],1 to 10
14,O=C(Cc1ccccc1F)Nc1ccc(CC2CC[C@H]([C@H](O)c3cccnc3)N2)cc1 (some centres unmarked) [Example 77],11 to 100
15,O=C(Cc1c(F)cccc1F)Nc1ccc(CC2CC[C@H]([C@H](O)c3cccnc3)N2)cc1 (some centres unmarked) [Example 78],1 to 10
16,O=C(Cc1cccc(F)c1F)Nc1ccc(CC2CC[C@H]([C@H](O)c3cccnc3)N2)cc1 (some centres unmarked) [Example 79],11 to 100
17,Cc1nc(CC(=O)Nc2ccc(CC3CC[C@H]([C@H](O)c4cccnc4)N3)cc2)no1 (some centres unmarked) [Example 80],11 to 100
18,O=C(Cc1csc(-c2ccccn2)n1)Nc1ccc(CC2CC[C@H]([C@H](O)c3cccnc3)N2)cc1 (some centres unmarked) [Example 81],11 to 100
19,O=C(Cc1csc(-c2cccnc2)n1)Nc1ccc(CC2CC[C@H]([C@H](O)c3cccnc3)N2)cc1 (some centres unmarked) [Example 82],1 to 10
20,COC(=O)CCC(=O)Nc1ccc(CC2CC[C@H]([C@H](O)c3cccnc3)N2)cc1 (some centres unmarked) [Example 83],101 to 1000
21,O=C(O)CCC(=O)Nc1ccc(CC2CC[C@H]([C@H](O)c3cccnc3)N2)cc1 (some centres unmarked) [Example 84],101 to 1000
22,O=C(CN1CCCOC1=O)Nc1ccc(CC2CC[C@H]([C@H](O)c3cccnc3)N2)cc1 (some centres unmarked) [Example 85],11 to 100
23,CN1CCN(CC(=O)Nc2ccc(CC3CC[C@H]([C@H](O)c4cccnc4)N3)cc2)C1=O (some centres unmarked) [Example 86],101 to 1000
24,CN1CCCN(CC(=O)Nc2ccc(CC3CC[C@H]([C@H](O)c4cccnc4)N3)cc2)C1=O (some centres unmarked) [Example 87],101 to 1000
